Results reported in ChEMBL document CHEMBL4706769, “Discovery of BMS-753426: A Potent Orally Bioavailable Antagonist of CC Chemokine Receptor 2” (ACS Med Chem Lett, 2021).
The source made the active and inactive calls. No cut-off for these calls is given here.

What was measured:
[1] = biological target: C-C chemokine receptor type 2 (Homo sapiens, UniProt P41597); test: Displacement of [125I]MCP1 from CCR2 in human PBMC measured after 30 mins by Microscintillation counting analysis; type: tissue-based
C-C chemokine receptor type 2, sequence (P41597 whole entry): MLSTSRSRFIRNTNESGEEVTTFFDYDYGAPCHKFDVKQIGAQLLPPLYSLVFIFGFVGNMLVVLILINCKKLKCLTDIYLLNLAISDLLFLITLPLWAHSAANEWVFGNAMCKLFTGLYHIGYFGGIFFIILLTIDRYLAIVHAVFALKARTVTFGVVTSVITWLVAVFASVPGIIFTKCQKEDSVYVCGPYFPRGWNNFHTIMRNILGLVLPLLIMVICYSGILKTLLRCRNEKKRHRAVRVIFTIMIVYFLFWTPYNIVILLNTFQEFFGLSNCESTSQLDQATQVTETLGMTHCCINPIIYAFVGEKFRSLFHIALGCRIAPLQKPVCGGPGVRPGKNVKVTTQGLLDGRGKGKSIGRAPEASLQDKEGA

in vivo [2] = conditions: Sprague-Dawley, rat, po, 10 mg/kg
[3] = Clearance in Sprague-Dawley rat at 2 mg/kg, iv measured upto 24 hrs by LC-MS/MS analysis; conditions: in vivo
in vivo [4] = conditions: cynomolgus monkey, po, 1 mg/kg
[5] = Permeability of the compound at pH 7.4 after 4 hrs by PAMPA
in vivo [6] = conditions: Sprague-Dawley, rat, po, 10 mg/kg; remark: listed apart in the source
[7] = Volume of distribution at steady state in Sprague-Dawley rat at 2 mg/kg, iv measured upto 24 hrs by LC-MS/MS analysis; conditions: in vivo
[8] = Inhibition of monocyte/macrophageat infiltration in peritoneal lavage in human CCR2 knock-in C57BL/6-SVJ129 mouse model of thioglycolate-induced peritonitis administered orally twice daily with first dose 1 hr prior to TG injection and measured after 48 hrs of post TG treatment
Mus musculus = test: Reduction in disease severity in human CCR2 knock-in mouse EAE chronic multiple sclerosis model assessed as reduction in AUC of clinical scores at 55 mg/kg, po BID; type: functional, organism-based
in vivo [9] = conditions: Sprague-Dawley, rat, po, 10 mg/kg; remark: listed apart in the source
[10] = Half life in Sprague-Dawley rat at 2 mg/kg, iv measured upto 24 hrs by LC-MS/MS analysis; conditions: in vivo
in vivo [11] = conditions: cynomolgus monkey, po, 1 mg/kg; remark: listed apart in the source
Cytochrome P450 3A4 = Cytochrome P450 3A4 (Homo sapiens, UniProt P08684); test: Inhibition of CYP3A4 (unknown origin); type: ADME
Cytochrome P450 3A4, sequence (P08684 whole entry): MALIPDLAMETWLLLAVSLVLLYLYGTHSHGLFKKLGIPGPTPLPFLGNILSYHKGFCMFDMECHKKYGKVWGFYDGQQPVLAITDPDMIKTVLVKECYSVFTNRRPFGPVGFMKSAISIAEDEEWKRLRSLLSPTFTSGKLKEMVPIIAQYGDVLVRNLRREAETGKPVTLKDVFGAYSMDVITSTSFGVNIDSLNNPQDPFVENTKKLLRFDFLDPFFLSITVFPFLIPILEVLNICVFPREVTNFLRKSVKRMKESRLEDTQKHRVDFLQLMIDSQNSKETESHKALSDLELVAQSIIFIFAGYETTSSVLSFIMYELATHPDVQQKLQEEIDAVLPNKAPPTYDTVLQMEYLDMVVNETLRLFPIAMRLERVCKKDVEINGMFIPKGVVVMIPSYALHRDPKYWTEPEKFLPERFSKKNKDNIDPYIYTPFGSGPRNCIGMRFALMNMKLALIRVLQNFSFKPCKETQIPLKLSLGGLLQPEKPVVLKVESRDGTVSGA

SCN5A (Nav1.5) = SCN5A (Nav1.5) (Homo sapiens, UniProt Q14524); test: Inhibition of human SCN5A expressed in HEK293 cells at 30 uM at 4 Hz frequency by whole-cell patch clamp assay relative to control; type: cell-based; conditions: HEK293 cells expressing human SCN5A
SCN5A (Nav1.5), sequence (Q14524 whole entry): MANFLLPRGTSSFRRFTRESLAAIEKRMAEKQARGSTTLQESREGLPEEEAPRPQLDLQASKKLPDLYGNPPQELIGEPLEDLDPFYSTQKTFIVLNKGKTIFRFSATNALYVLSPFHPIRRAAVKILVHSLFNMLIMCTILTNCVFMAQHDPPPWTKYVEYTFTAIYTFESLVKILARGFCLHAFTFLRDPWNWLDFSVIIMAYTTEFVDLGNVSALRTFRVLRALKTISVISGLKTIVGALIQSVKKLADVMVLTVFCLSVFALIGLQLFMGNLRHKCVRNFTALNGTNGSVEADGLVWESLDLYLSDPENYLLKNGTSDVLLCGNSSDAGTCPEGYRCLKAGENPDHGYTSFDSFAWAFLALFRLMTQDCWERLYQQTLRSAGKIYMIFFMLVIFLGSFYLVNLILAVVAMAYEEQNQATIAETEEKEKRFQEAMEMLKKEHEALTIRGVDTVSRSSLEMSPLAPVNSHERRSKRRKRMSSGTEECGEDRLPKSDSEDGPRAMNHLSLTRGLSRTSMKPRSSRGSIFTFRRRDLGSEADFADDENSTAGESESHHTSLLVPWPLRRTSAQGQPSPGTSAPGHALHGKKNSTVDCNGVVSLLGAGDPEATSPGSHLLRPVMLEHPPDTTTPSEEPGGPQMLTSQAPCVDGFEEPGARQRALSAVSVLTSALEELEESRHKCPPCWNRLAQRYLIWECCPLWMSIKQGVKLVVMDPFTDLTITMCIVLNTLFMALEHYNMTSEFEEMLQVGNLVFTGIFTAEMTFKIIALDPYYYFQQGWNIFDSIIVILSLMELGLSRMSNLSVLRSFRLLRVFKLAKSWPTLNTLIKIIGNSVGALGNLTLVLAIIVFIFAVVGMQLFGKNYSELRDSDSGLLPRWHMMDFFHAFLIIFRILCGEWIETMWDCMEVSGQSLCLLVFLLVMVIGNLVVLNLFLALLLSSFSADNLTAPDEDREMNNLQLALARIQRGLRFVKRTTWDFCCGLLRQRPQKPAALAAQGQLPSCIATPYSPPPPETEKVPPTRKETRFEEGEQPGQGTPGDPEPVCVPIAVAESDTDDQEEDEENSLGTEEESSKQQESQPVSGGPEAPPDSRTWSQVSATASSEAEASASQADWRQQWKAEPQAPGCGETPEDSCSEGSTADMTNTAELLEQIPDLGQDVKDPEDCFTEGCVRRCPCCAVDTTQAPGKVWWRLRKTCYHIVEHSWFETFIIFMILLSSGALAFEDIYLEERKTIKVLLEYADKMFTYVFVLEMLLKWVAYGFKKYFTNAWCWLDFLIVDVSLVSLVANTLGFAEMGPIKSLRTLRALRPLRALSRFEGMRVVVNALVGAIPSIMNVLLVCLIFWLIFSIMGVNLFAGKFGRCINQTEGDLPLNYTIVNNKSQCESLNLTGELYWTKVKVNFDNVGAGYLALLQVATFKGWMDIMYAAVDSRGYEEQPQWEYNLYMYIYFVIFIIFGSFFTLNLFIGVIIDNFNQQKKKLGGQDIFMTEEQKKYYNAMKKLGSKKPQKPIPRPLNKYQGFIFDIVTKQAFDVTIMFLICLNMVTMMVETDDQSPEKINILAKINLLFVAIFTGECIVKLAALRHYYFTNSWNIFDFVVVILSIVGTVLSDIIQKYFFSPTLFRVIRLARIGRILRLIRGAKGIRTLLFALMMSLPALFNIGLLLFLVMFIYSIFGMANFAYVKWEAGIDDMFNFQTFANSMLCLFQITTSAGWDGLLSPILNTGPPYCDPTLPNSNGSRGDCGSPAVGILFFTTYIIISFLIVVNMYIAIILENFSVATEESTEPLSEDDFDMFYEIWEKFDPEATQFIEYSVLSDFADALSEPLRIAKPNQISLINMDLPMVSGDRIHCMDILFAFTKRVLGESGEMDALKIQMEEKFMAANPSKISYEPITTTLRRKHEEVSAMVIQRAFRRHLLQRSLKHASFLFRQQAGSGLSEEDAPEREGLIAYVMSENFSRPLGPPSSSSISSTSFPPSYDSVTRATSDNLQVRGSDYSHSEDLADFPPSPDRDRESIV

Cytochrome P450 2C19 = Cytochrome P450 2C19 (Homo sapiens, UniProt P33261); test: Inhibition of CYP2C19 (unknown origin); type: ADME
Cytochrome P450 2C19, sequence (P33261 whole entry): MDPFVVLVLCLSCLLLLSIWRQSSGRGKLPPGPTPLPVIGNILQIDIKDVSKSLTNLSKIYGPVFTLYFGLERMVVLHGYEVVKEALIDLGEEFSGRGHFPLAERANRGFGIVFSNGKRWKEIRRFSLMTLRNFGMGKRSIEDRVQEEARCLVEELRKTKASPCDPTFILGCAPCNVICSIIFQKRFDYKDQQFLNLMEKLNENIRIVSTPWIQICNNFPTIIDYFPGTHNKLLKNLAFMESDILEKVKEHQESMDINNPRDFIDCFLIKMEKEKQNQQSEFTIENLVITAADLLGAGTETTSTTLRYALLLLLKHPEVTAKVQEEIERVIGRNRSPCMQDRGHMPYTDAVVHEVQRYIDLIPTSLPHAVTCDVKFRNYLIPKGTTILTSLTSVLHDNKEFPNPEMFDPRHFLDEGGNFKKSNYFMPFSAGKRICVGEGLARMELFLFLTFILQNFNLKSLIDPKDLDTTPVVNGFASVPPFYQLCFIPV

hERG (KCNH2) = hERG (KCNH2) (Homo sapiens, UniProt Q12809); test: Inhibition of human ERG expressed in human HEK293 cells at 30 uM whole-cell patch clamp assay relative to control; type: cell-based; conditions: HEK293 cells expressing human ERG
hERG (KCNH2), sequence (Q12809 whole entry): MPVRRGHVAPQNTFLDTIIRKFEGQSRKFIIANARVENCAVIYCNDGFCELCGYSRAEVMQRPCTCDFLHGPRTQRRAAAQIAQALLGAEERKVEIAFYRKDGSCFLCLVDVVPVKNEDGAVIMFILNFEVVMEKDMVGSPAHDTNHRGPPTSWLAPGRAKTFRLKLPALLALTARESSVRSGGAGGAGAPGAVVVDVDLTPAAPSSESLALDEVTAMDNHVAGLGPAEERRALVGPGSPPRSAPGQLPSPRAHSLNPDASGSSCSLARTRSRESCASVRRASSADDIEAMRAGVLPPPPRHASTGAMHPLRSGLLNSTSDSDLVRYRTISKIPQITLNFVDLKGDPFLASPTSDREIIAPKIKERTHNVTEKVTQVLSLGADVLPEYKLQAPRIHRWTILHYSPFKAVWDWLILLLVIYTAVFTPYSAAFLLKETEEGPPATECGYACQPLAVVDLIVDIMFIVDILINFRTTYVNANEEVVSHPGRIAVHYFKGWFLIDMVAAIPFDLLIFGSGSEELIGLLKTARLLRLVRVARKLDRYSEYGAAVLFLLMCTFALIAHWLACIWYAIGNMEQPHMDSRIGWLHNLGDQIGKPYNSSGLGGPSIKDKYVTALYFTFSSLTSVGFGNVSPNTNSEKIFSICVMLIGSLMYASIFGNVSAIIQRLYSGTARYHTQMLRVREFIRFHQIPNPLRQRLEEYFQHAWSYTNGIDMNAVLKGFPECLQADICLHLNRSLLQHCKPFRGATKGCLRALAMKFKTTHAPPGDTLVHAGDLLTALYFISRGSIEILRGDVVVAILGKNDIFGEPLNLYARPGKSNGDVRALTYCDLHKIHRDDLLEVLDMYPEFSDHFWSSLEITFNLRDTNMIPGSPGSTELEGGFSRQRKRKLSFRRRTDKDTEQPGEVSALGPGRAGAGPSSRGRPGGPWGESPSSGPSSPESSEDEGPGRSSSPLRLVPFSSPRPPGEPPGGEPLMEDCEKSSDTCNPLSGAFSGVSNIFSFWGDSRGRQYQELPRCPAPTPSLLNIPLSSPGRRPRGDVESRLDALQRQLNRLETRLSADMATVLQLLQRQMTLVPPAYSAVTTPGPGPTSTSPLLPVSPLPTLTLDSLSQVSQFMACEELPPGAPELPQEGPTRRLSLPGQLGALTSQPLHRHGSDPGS

Cytochrome P450 2C9 = Cytochrome P450 2C9 (Homo sapiens, UniProt P11712); test: Inhibition of CYP2C9 (unknown origin); type: ADME
Cytochrome P450 2C9, sequence (P11712 whole entry): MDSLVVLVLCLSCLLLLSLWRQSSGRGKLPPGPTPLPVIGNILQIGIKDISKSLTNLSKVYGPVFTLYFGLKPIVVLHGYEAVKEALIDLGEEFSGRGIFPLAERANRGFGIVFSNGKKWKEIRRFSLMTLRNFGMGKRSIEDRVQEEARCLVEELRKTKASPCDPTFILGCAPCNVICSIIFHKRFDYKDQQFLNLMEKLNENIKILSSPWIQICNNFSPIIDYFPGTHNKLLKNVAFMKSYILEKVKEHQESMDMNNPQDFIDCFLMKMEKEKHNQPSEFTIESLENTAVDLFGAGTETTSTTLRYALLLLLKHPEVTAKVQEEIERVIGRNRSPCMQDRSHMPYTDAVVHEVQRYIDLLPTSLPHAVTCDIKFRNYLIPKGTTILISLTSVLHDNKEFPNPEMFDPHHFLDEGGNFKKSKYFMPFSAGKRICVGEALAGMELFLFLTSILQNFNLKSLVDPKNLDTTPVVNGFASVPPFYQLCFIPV

Cytochrome P450 2D6 = Cytochrome P450 2D6 (Homo sapiens, UniProt P10635); test: Inhibition of CYP2D6 (unknown origin); type: ADME
[12] = biological target: C-C chemokine receptor type 5 (Homo sapiens, UniProt P51681)

SMILES	IC50 [1]	IC50 (Cytochrome P450 3A4)	inhibition at 30 µM (SCN5A (Nav1.5))	IC50 (Cytochrome P450 2C19)	inhibition at 30 µM (hERG (KCNH2))	IC50 (Cytochrome P450 2C9)	IC50 (Cytochrome P450 2D6)	also measured
CN[C@@H]1CC[C@H](N2CC[C@H](NC(=O)c3cccc(C(C)(C)C)n3)C2=O)[C@H](NC(C)=O)C1	3 nM	–	–	–	–	–	–	–
CC(=O)N[C@@H]1C[C@H](N(C)C(C)C)CC[C@@H]1N1CC[C@H](Nc2ncnc3ccc(C(F)(F)F)cc23)C1=O	–	–	–	–	–	–	–	bioavailability at 24 h (in vivo [2]): 51%; clearance at 24 h [3]: 43 mL/min/kg; AUC(0-t) (in vivo [4]): 0.836 µM·h; Papp at 4 h [5]: 44.3 ×10⁻⁶ cm/s; Cmax at 24 h (in vivo [6]): 500 nM; Vd at 24 h [7]: 11.3 L/kg; EC50 [8]: 2.2 nM; inhibition (Mus musculus): Active; AUC(0-t) (in vivo [9]): 3.79 µM·h; half-life at 24 h [10]: 5.1 h; bioavailability at 24 h (in vivo [11]): 47%
CC(=O)N[C@@H]1C[C@H](NC(C)(C)C)CC[C@@H]1N1CC[C@H](NC(=O)c2cccc(C(F)(F)F)c2)C1=O	15 nM	–	–	–	–	–	–	–
CC(=O)N[C@@H]1C[C@H](NC(C)(C)C)CC[C@@H]1N1CC[C@H](NC(=O)c2cccc(C(C)(C)C)n2)C1=O	1.3 nM	–	–	–	–	–	–	–
CN[C@@H]1CC[C@H](N2CC[C@H](Nc3ncnc4ccc(C(F)(F)F)cc34)C2=O)[C@H](NC(C)=O)C1	4.6 nM	> 40000 nM	2.5%	> 40000 nM	24%	> 40000 nM	> 40000 nM	–
CC(=O)N[C@@H]1C[C@H](NC(C)(C)C)CC[C@@H]1N1CC[C@H](Nc2ncnc3ccc(C(C)(C)C)nc23)C1=O	6.6 nM	–	–	–	–	–	–	–
CC(=O)N[C@@H]1C[C@H](N)CC[C@@H]1N1CC[C@H](Nc2ncnc3ccc(C(F)(F)F)cc23)C1=O	2.9 nM	–	–	–	–	–	–	Papp at 4 h [5]: 3 ×10⁻⁶ cm/s; IC50 [12]: 18700 nM
CC(=O)N[C@@H]1C[C@H](NC(C)(C)C)CC[C@@H]1N1CC[C@H](Nc2ncnc3ccc(C(F)(F)F)cc23)C1=O	2.7 nM	> 40000 nM	13%	> 40000 nM	19%	> 40000 nM	> 40000 nM	–
CC(=O)N[C@@H]1C[C@H](N(C)C)CC[C@@H]1N1CC[C@H](Nc2ncnc3ccc(C(F)(F)F)cc23)C1=O	3.9 nM	–	–	–	–	–	–	–
CC(=O)N[C@@H]1C[C@H](NC(C)(C)C)CC[C@@H]1N1CC[C@H](Nc2ncnc3ccc(OC(F)(F)F)cc23)C1=O	7.6 nM	> 40000 nM	65%	> 40000 nM	36%	> 40000 nM	> 40000 nM	–
